# Reference: patent US8791264B2 (Purdue Pharma L.P., priority 2006, dated 2014)
# Assays:
# [1] = molecular target: T1, N-type calcium channel (NTCC) (Homo sapiens, UniProt Q00975); test: FLIPR calcium mobilization assay for N-type calcium channel; type: cell-based; conditions: calcium mobilization in vitro assay; differentiated IMR32 cells
# T1 construct: host or cells: IMR32 cells differentiated with dibutyryl cAMP and bromodeoxyuridine
# Method in brief: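 Differentiated IMR32 cells (8 days, dibutyryl cAMP and BrdU) loaded with 3 μM Fluo-4 during 90 mM KCl pre-stimulation, with compound at about 846 pM to 17 μM plus 5 μM nitrendipine. After washes in compound, FLIPR read basal fluorescence 315 s, then 45 s after KCl addition (final 90 mM).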
# [2] = molecular target: T2, recombinant rat L-type calcium channel (LTCC) subunits (α1c, α2δ, and β1) (Rattus norvegicus, UniProt P22002); test: FLIPR calcium mobilization assay for L-type calcium channel; type: cell-based; conditions: calcium mobilization in vitro assay; HEK293 cells expressing rat LTCC
# T2 construct: expressed in transfected cells
# Method in brief: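 HEK293 cells stably expressing rat LTCC (α1c, α2δ, β1), Fluo-4 loaded in pH 7.4 buffer with 5 mM CaCl2. Compound (about 846 pM to 17 μM final) applied 5 minutes before depolarization with 90 mM KCl final; FLIPR fluorescence recorded throughout.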
# T1 sequence (Q00975 whole entry): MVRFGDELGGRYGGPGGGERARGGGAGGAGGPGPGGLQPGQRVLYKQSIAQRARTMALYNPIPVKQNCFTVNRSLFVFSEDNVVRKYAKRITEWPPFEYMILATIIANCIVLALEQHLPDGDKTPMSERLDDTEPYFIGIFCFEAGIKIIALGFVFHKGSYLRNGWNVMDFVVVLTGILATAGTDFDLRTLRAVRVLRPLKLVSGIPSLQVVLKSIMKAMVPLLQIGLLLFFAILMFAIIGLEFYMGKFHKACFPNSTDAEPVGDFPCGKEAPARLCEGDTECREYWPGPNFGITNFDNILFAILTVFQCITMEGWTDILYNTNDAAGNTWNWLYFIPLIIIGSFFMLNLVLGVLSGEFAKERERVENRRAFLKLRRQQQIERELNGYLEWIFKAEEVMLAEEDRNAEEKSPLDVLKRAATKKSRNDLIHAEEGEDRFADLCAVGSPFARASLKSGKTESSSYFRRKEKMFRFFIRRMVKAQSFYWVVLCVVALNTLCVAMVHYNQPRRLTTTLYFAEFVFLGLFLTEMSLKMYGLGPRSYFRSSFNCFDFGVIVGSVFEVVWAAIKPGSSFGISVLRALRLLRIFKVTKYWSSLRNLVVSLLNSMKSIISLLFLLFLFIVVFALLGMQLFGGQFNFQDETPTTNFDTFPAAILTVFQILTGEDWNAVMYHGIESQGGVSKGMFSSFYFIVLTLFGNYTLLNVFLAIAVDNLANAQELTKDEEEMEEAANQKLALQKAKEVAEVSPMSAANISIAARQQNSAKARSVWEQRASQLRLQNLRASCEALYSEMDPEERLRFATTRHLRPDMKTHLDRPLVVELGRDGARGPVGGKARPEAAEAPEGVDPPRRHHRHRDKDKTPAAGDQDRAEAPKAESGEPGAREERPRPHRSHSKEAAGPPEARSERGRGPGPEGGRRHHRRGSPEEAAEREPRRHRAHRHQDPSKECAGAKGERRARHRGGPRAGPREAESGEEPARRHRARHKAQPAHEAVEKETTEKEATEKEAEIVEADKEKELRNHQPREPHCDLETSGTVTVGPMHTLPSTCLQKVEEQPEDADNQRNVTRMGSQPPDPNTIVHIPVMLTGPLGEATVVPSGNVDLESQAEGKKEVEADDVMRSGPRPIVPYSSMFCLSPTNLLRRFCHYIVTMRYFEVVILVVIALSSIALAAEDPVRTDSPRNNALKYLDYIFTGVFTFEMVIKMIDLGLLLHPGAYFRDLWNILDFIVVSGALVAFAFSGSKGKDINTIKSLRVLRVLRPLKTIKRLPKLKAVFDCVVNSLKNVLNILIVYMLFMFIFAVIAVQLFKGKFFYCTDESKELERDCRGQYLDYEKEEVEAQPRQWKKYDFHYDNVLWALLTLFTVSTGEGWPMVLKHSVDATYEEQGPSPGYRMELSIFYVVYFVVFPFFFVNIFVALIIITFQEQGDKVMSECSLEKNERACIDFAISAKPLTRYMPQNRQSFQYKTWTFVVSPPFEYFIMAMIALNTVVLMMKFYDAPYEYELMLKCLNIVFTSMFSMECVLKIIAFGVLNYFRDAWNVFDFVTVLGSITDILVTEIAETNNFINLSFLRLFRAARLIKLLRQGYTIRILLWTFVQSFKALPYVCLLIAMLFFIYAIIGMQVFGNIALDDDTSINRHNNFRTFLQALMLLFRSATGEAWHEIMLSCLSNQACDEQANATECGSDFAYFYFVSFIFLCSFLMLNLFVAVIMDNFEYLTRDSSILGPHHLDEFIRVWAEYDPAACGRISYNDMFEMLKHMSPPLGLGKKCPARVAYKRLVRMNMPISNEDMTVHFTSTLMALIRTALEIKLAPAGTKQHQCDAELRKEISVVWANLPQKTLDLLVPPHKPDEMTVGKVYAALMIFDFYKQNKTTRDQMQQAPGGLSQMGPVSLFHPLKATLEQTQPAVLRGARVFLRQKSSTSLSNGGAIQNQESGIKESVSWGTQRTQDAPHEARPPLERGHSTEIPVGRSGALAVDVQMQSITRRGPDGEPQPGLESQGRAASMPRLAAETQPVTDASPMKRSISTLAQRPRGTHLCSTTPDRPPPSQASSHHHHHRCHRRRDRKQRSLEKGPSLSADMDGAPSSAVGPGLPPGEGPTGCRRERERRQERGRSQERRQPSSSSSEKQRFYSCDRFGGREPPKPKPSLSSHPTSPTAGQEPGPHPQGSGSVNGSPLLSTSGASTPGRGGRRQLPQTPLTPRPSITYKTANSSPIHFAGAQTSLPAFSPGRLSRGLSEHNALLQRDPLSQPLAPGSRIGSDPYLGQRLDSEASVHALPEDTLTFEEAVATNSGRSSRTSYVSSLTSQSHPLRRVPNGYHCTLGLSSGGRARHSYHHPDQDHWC
# T1 sequence (P54289 25-956 partner limits assumed): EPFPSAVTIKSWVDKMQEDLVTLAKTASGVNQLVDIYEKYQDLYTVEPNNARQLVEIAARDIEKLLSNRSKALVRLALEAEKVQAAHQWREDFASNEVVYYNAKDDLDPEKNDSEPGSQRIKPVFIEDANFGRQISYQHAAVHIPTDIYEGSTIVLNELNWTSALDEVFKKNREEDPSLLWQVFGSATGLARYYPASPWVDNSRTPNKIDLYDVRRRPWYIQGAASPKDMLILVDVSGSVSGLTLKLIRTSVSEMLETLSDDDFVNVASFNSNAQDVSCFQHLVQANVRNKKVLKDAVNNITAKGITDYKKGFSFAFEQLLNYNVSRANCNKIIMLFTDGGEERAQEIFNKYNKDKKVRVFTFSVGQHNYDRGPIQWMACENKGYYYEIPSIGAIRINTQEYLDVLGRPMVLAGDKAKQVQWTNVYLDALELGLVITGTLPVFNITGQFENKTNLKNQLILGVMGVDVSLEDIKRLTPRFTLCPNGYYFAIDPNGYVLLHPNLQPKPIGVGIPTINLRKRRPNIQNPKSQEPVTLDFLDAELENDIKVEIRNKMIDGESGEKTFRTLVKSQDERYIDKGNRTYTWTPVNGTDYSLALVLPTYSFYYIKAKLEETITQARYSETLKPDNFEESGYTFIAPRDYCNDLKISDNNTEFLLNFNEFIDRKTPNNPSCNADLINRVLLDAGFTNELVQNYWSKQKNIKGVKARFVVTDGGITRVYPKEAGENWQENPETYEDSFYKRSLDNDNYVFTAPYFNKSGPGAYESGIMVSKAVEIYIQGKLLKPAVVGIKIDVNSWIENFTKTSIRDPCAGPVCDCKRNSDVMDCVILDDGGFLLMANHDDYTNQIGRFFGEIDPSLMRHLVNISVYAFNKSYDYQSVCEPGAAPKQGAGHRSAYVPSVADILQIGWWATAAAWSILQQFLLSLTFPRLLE
# T1 sequence (P54289 957-1103 partner limits assumed): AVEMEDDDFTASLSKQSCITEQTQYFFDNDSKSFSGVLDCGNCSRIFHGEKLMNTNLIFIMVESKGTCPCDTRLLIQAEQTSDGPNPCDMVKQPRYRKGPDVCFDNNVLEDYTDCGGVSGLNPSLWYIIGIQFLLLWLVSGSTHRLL
# T1 sequence (P54284 whole entry partner): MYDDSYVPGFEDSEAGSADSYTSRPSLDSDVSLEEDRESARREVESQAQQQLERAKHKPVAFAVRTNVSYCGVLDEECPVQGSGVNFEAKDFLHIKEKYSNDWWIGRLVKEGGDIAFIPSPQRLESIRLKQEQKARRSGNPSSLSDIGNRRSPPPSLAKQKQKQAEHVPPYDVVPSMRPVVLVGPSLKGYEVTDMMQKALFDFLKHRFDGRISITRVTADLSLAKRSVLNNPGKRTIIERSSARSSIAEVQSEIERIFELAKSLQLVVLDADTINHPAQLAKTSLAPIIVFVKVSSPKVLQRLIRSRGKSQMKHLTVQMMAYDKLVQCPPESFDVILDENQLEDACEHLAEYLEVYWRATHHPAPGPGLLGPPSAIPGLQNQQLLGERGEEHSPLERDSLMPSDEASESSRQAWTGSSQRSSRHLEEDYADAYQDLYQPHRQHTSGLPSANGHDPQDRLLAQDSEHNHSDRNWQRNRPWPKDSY
Structure (SMILES),IC50 [1] [nM],IC50 [2] [nM]
"CC(C)N(C1CCN(CC(=O)N(c2ccc(F)cc2)c2ccc(F)cc2)CC1)S(=O)(=O)c1cccc(C(F)(F)F)c1 [Compound 84, N,N-Bis-(4-fluorophenyl)-2-{4-[isopropyl-(3-trifluoromethyl-benzenesulfonyl)amino]-piperidin-1-yl}-acetamide]",320,> 20000
"CC(C)N(C1CCN(C(=O)[C@H](Cc2ccccc2)NCC(N)=O)CC1)S(=O)(=O)c1cccc(C(F)(F)F)c1 [Compound 109, (S)-2-(1-Benzyl-2-{4-[isopropyl(3-trifluoromethylbenzene-sulfonyl)amino]-piperidin-1-yl}-2-oxo-ethylamino)-acetamide]",790,7430
CC(C)N(C1CCN(C(=O)CCNc2ccc(F)cc2Cl)CC1)S(=O)(=O)c1cccc(C(F)(F)F)c1 [N-{1-[3-(2-chloro-4-fluoro-phenylamino)-propionyl]-piperidin-4-yl}-N-isopropyl-3-trifluoromethyl-benzenesulfonamide],820,> 20000
"CCN(CC)C(=O)CN1CCC(N(C2CC2)S(=O)(=O)c2cccc(C(F)(F)F)c2)CC1 [Compound 38, 2-{4-[Cyclopropyl-(3-trifluoromethylbenzenesulfonyl)amino]-piperidin-1-yl}-N,N-diethylacetamide]",840,3260
"CC(C)N(C1CCN(C(=O)CNCc2ccccc2)CC1)S(=O)(=O)c1cccc(C(F)(F)F)c1 [Compound 93, N-[1-(2-Benzylaminoacetyl)-piperidin-4-yl]-N-isopropyl-3-trifluoromethylbenzenesulfonamide]",560,10000 to 20000
"CC(C)N(C1CCN(C(=O)CCNc2ccc(F)cc2F)CC1)S(=O)(=O)c1cccc(C(F)(F)F)c1 [N-{1-[3-(2,4-difluoro-phenylamino)-propionyl]-piperidin-4-yl}-N-isopropyl-3-trifluoromethyl-benzenesulfonamide]",830,> 20000
CC(C)N(C1CCN(C(=O)CCNc2cccc(OC(F)(F)F)c2)CC1)S(=O)(=O)c1cccc(C(F)(F)F)c1 [N-isopropyl-N-{1-[3-(3-trifluoromethoxy-phenylamino)-propionyl]-piperidin-4-yl}-3-trifluoromethyl-benzenesulfonamide],770,> 20000
"Cc1cc(C)cc(NC(=O)CN2CCC(N(C3CC3)S(=O)(=O)c3cccc(C(F)(F)F)c3)CC2)c1 [Compound 80, 2-{4-[Cyclopropyl-(3-trifluoromethylbenzenesulfonyl)amino]-piperidin-1-yl}-N-(3,5-dimethylphenyl)-acetamide]",500,> 20000
"N#Cc1cc(F)cc(NC(=O)CN2CCC(N(C3CC3)S(=O)(=O)c3cccc(C(F)(F)F)c3)CC2)c1 [Compound 81, N-(3-Cyano-5-fluorophenyl)-2-{4-[cyclopropyl-(3-trifluoromethyl-benzenesulfonyl)amino]-piperidin-1-yl}-acetamide]",360,> 20000
"O=C(CN1CCC(N(C2CC2)S(=O)(=O)c2cccc(C(F)(F)F)c2)CC1)Nc1ccccc1 [Compound 57, 2-{4-[Cyclopropyl-(3-trifluoromethylbenzenesulfonyl)-amino]-piperidin-1-yl}-N-phenyl-acetamide]",530,> 20000

# Other lines, results leading:
IC50 [1] [nM],IC50 [2] [nM],Structure (SMILES)
620,7080,"CC(C)C[C@H](NC1CCCC1)C(=O)N1CCC(N(C(C)C)S(=O)(=O)c2cccc(C(F)(F)F)c2)CC1 [Compound 88c, (S)—N-[1-(2-Cyclopentylamino-4-methyl-pentanoyl)-piperidin-4-yl]-N-isopropyl-3-trifluoromethyl-benzenesulfonamide]"
250,> 20000,"CC(C)N(C1CCN(CC(=O)Nc2ccc(OC(F)(F)F)cc2)CC1)S(=O)(=O)c1cccc(C(F)(F)F)c1 [Compound 42l, 2-{4-[Isopropyl-(3-trifluoromethylbenzenesulfonyl)amino]-piperidin-1-yl}-N-(4-trifluoromethoxyphenyl)-acetamide]"
330,4160,"CC(C)N(C1CCN(CC(=O)NCc2ccc(F)cc2)CC1)S(=O)(=O)c1cccc(C(F)(F)F)c1 [Compound 42k, N-(4-Fluorobenzyl)-2-{4-[isopropyl-(3-trifluoromethylbenzenesulfonyl)amino]-piperidin-1-yl}-acetamide]"
180,2510,"CC(C)N(C1CCN(CC(=O)Nc2ccc(C#N)cc2)CC1)S(=O)(=O)c1cccc(C(F)(F)F)c1 [Compound 42g, N-(4-Cyanophenyl)-2-{4-[isopropyl-(3-trifluoromethylbenzenesulfonyl)amino]-piperidin-1-yl}-acetamide]"
460,5320,"COc1ccc(NC(=O)CN2CCC(N(C(C)C)S(=O)(=O)c3cccc(C(F)(F)F)c3)CC2)cc1 [Compound 42h, 2-{4-[isopropyl-(3-trifluoromethylbenzenesulfonyl)amino]-piperidin-1-yl}-N-(4-methoxyphenyl)acetamide]"
100,3580,"CC(C)N(C1CCN(C(=O)[C@H](Cc2ccccc2)NCC2CCCCC2)CC1)S(=O)(=O)c1cccc(C(F)(F)F)c1 [Compound 88d, (S)—N-{1-[2-(Cyclohexylmethyl-amino)-3-phenyl-propionyl]-piperidin-4-yl}-N-isopropyl-3-trifluoromethyl-benzenesulfonamide]"
